{
  "source": "patent US8198330B2",
  "about": "“Therapeutic or prophylactic agent for diabetes, obesity, dyslipidemia or metabolic syndrome comprising benzylamine derivative or pharmaceutically acceptable acid addition salt thereof” (Toray Industries, Inc., priority 2008, dated 2012)",
  "system": "DIO mice",
  "test": "Efficacy in diabetes/obesity-model mice (DIO mice): blood sugar, body weight, fat, triglyceride",
  "type": "in vivo, mouse",
  "settings": "for Weight of the fat around the mouse testicles / Blood sugar / Increase in body weight / Triglyceride: DIO mouse; for Weight of the fat around the mouse testicles: after ITT (day 27); for Blood sugar / Increase in body weight / Triglyceride: day 26; for Triglyceride: plasma",
  "experimental": "C57BL/6J mice grown on a solid feeding stuff containing 60% fat (D12492, Research Diets) since 4 weeks of age, (male, Charles River Laboratories, Japan, 13 weeks of age) were purchased and mice of 16 weeks of age grown on D12492 since the day of arrival were used. C57BL/6J mice of 16 weeks of age grown on normal food since the day of arrival were used in the normal group. The compound of Example 1 was diluted to 2 mg/mL or 0.6 mg/mL, as it is dissolved in physiological saline, and the solution was administered subcutaneously in an amount of 5 mL/kg, by using a disposable syringe (Terumo) and a 26G injection needle (Terumo). Physiological saline was administered in the vehicle group. The solution was administered once a day from the day of first administration (day 0) to day 26. The body weight was determined on day 26; the tail vein was cut open with a knife (disposable scalpel, FEATHER); and the blood sugar was determined with a simplified blood sugar analyzer (MediSense Precision Xceed, Abotto Japan).\nThe blood was collected (approximately 70 μL) from the same site by using a heparin-treated capillary (Hematokrit Kapilaren, 75 μL, […] LABORGERATE) and the collected blood was centrifuged (12,000 rpm, 7 min, 4° C.) in a hematocrit centrifuge (KUBOTA3100, Kubota Corp.) and the plasma was stored, as it is frozen in an Eppendorf tube, until it is used for measurement of triglyceride. The triglyceride measurement was carried out by using Triglyceride E-Test Wako (Wako Pure Chemical Industries). Four μL of the sample was added to 250 μL of the coloring liquid, after reaction at 37° C. for 1 hour, and the absorbance (595 nm) of the mixture was determined by using a microplate reader (Bio-Rad, Model 680). Separately, insulin tolerance test (ITT) was performed on day 27.\nThe insulin level was measured by using an insulin measurement kit (Lebis Insulin Mouse U, Shibayagi). Finally, HOMA-IR was also calculated from the values of fasting blood sugar and fasting insulin. The weight of the fat around the mouse testicles was also determined after measurement of ITT. Statistical treatment of the individual data obtained was carried out by a two-group test (unpaired t-test) or a multiplex comparison test (parametric Williams test).",
  "data": [
    {"smiles": "COc1cc(CN[C@@H](C)[C@H](O)c2ccc(O)c(NS(C)(=O)=O)c2)cc(OC)c1", "note": "[Example 1, N-(5-((1R,2S)-2-(3,5-Dimethoxybenzylamino)-1-hydroxypropyl)-2-hydroxyphenyl)methanesulfonamide]", "values": [
      {"measurement": "blood sugar-reducing effect", "setting": "DIO mice", "result": "significant blood sugar-reducing effect"},
      {"measurement": "increase in body weight versus vehicle group", "setting": "DIO mice", "result": "Significant suppression of increase in body weight"},
      {"measurement": "plasma triglyceride (TG) versus vehicle group", "setting": "DIO mice", "result": "declined statistically significantly"},
      {"measurement": "weight of the fat around the mouse testicles versus vehicle group", "setting": "DIO mice", "result": "declined significantly"},
      {"measurement": "Weight of the fat around the mouse testicles", "setting": "3 mg/kg s.c. once a day", "result": "2.6 ± 0.1", "unit": "g"},
      {"measurement": "Blood sugar", "setting": "3 mg/kg s.c. once a day", "result": "177 ± 9", "unit": "mg/dL"},
      {"measurement": "Increase in body weight", "setting": "3 mg/kg s.c. once a day", "result": "3.5 ± 0.6", "unit": "g"},
      {"measurement": "Weight of the fat around the mouse testicles", "setting": "10 mg/kg s.c. once a day", "result": "2.3 ± 0.1", "unit": "g"},
      {"measurement": "Blood sugar", "setting": "10 mg/kg s.c. once a day", "result": "168 ± 8", "unit": "mg/dL"},
      {"measurement": "Increase in body weight", "setting": "10 mg/kg s.c. once a day", "result": "2.1 ± 0.5", "unit": "g"},
      {"measurement": "Triglyceride", "setting": "3 mg/kg s.c. once a day", "result": "162 ± 14", "unit": "mg/dL"},
      {"measurement": "Triglyceride", "setting": "10 mg/kg s.c. once a day", "result": "129 ± 9", "unit": "mg/dL"}
    ]}
  ]
}
